The source of these data is article PMC11729428, “New Potent Inhibitor of Transforming Growth Factor-Beta (TGFβ) Signaling that is Efficacious against Microsatellite Stable Colorectal Cancer Metastasis in Combination with Immune Checkpoint Therapy in Mice” (ACS Pharmacology & Translational Science, 2024).

What is called Cmax is the highest concentration seen after dosing. The Tmax is the time from dosing to the highest level. In general, IC50 refers to the concentration at which inhibition is half-maximal. A word on the solubility: it is how much of the substance goes into solution per volume.

The conditions of series [1]: oral, cited from earlier work.
A further series addresses T1, p38α (Homo sapiens, UniProt Q16539).
T1 construct: p38alpha was used as a full -length recombinant protein; purchased Eurofins Pharma Discovery Services / Eurofins Cerep (Kinase Profiler service)
In words: Radiometric in vitro kinase activity assay (Kinase Profiler). The class given is biochemical. The note with it: full-length recombinant protein; read-out: kinase inhibition IC50, p38α. The procedure:
5. Methods for In vitro characterizations of HYL001
Kinase affinity and selectivity […]
The activity, measured as IC50, of inhibitors was determined by radiometric γ-33P-ATP-mediated in vitro phosphorylation assays, using the Kinase Profiler service from Eurofins Pharma Discovery Services (Wolverhampton, UK) and Eurofins Cerep (Celle L’Evescault, France). Compounds, prepared in 100% DMSO, were tested using a 9-point curve with half -log serial dilutions (1–10,000 nM). […]

Another series is described as follows: Solubility. The format is physicochemical. How it is done: The solubilities in this solution are 0.7 mg/mL (1b) and 0.23 mg/mL (1a). In most in vivo experiments, a homogeneous suspension in the following vehicle was used: sodium carboxymethylcellulose (1%), sodium dodecyl sulfate (0.4%), polyvinylpyrrolidone (0.085%), and antifoam-A (0.05%). The solubilities in this vehicle are approximately 0.15 mg/mL (1b) and 0.09 mg/mL (1a). […] Therefore, as a proof-of-concept, we leveraged the hydroxyl handle to design HYL002. We added a carbonyl-4-piperidinopiperidine group, in analogy to the ester that solubilizes SN-38 into irinotecan, and that can be cleaved via hydrolysis inside cells[19] (Figure S1). HYL001 reacted with commercially available 4-piperidinopiperidine-1-carbonyl chloride in chloroform using triethylamine and catalytic amounts of DMAP (Scheme S1). We then transformed the resulting compound HYL002 into the corresponding HCl salt to aid the in vivo drug formulation. The free base was dissolved in dioxane under N2, where it was treated dropwise with 10 equiv of 4 M HCl in dioxane at room temperature with vigorous stirring. The reaction mixture was then taken to dryness in vacuo, giving the HCl salt of HYL002.

Series [2] relates to mouse tumor organoids (MTOs), CRC liver metastases. In words: Prevention of liver metastasis formation after MTO injection (monotherapy). The format is in vivo, mice. The note with it: 0.1× dose: 71 mg/kg BID HYL001, 80 mg/kg BID galunisertib. The procedure:
We first assayed the capacity of HYL001 to inhibit liver metastasis formation as a monotherapy. In this model, we inoculated MTOs derived from liver metastases into the portal vein (by intrasplenic or direct intravenous injection) to model their becoming trapped in hepatic sinusoids and, depending on their metastatic capacity, the initiation of liver nodules. […] Remarkably, 0.1 × mol equiv (71 mg/kg BID) of HYL001 was sufficient to prevent metastasis formation in 10 out of 11 animals.
Figure 5 HYL001 prevents metastasis formation in vivo. (A) Experimental scheme, including injection of MTOs. Experimental end point was at day 28, 2 weeks after treatment stop. […] (B) Liver metastases (Mets) were counted at end points; each point represents one mouse. Nonparametric Mann–Whitney U test, two-tailed. ns: P > 0.05; *P < 0.05; **P < 0.01; ***P < 0.001; (C) representative images of H & E whole slides containing liver sections from mice treated with TGFβ inhibitors; dashed line circles delimit metastases. […] 0.3× and 0.1×: dilutions thereof. Bars, 10 mm.
For all tumor cell injections, C57BL/6J (or athymic BALB/C nu/nu) mice were purchased from Janvier at 6 weeks of age and injected at 7–8 weeks. Sex was matched with the origin of the tumor organoids, i.e., males for this study. […] Visible liver metastases were counted, and data were analyzed using GraphPad Prism software (v.7.03). […]

Series [3] is described as follows: Exploratory toxicology study in SD rats. The following applies: for Degeneration of heart valves (histopathology grade): HYL001: after 4 weeks of repeated dosing, vactosertib: after 7–8 days of treatment; for Retained hypertrophied cartilage physis in sternum and femur (grade): vactosertib: all animals, HYL001: a few females.
Description: (§1) Sprague-Dawley rats were procured from Hylasco Bio-Technology Pvt. Ltd., Hyderabad. After completion of
(§2) the acclimatization period twelve healthy rats were randomly allocated to the control and treatment g roups.
(§3) mg/kg BID) treated animals, having three rats/sex/group. Rats from control group received vehicle, consisting
(§4) quantity sufficient to 1% w/v Carboxy Methyl Cellulose Sodium Salt. Rats from treatment groups were
(§5) administered with suspensions of the indicated drugs in vehicle, orally twice a day fo r an intended period of 28
(§6) consecutive days. The dosing volume was kept constant at 10 mL/kg for each rat.
(§7) clinical sign that worsened during the treatment, were necropsied in the shortest time for ethical reasons. The
(§8) rest of the rats were necropsied at the end of the treatment.
(§9) asphyxiation on day 29, except for one group of HYL001 treated rats with 71 mg/kg BID, that were allowed to
(§10) recover from treatment for further 28 days.
(§11) The rats were subjected to detailed gross pathological examination which included careful examination of the
(§12) external surface of the body, all orifices and the cranial, thoracic and abdominal cavities and their contents. After
(§13) gross pathological examination the vital organs were trimmed of any adherent tissue and were weighed wet.
(§14) Paired organs were weighed together. Organ weights relative to terminal body weights were calculated for each
(§15) Parameters evaluated during the study included in-life observations such as clinical signs observation, body
(§16) weights, percent body weight gains, and feed consumption. Parameters like hematology, clinical chemistry,
(§17) gross pathology, and organ weights were evaluated on the day of termination. Several organs/tissues were further
(§18) processed and evaluated for histopathology, where special attention was given to bones, gastrointestinal system
(§19) (stomach, duodenum, jejunum, ileum, caecum, colon and rectum), heart, and vascular lesions in the aorta and
(§20) coronary arteries. For histopathology, 3-5 μM thick tissue sections were cut and stained with hematoxylin-eosin
(§21) stain. The heart was trimmed by longitudinally bisecting along a plane perpendicular to the plane of the
(§22) pulmonary artery to expose the right atrioventricular, left atrioventricular, and aortic valves. Both halves of the
(§23) heart were embedded as hemisection in paraffin with the cut surface down. Blocks were sectioned to obtain at
least three heart valves.
Series [4] is described as follows: Exploratory toxicology study in Balb/C mice. The format is in vivo. How it is done:
In comparison to that in rats, toxicity of TGFβ receptor-1 inhibitors in mice was less severe (Figure 4). […] Histopathology examination in bones found relatively mild phenotypes (Figure 4A).
performed using GraphPad Prism statistical software version 5.02 for Windows, GraphPad Software, San Diego
The study design in mice was similar as in rats, except 5 mice of each sex were used (n=10 in total), and that
there was not a recovery group. All analyses were performed at day 29 after termination of treatment.

For series [5] the following is noted: rat, in vivo.
Description: as §1, §2, §3, §4, §5, §6, §7, §8, §9, §10, §11, §12, §13, §14, §15, §16, §17, §18, §19, §20, §21, §22, §23
least three heart valves.
The mark [6] stands for this setting: aqueous dosing vehicle (NaCMC/SDS/PVP/antifoam-A), aqueous with cosolvent or surfactant or cyclodextrin, vehicle: sodium carboxymethylcellulose (1%), sodium dodecyl sulfate (0.4%), polyvinylpyrrolidone (0.085%), antifoam-A (0.05%), read-out: Solubility.

Values after ≈ are worked out from the molar mass of the structure shown. Like-named read-outs stand apart in the source and are kept apart here.

T1 sequence (Q16539 whole entry): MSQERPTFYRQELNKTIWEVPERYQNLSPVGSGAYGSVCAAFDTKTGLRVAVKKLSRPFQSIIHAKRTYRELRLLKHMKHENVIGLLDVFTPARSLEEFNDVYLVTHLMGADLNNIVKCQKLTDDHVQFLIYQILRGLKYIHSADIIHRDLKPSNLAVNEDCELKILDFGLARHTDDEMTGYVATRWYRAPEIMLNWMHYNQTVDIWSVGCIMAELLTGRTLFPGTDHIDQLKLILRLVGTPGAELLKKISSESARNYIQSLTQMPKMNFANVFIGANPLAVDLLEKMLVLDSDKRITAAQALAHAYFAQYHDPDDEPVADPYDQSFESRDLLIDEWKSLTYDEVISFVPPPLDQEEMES

In the case of `Cc1cccc(-c2nn3c(c2-c2ccnc4ccc(C(N)=O)cc24)CCC3)n1` [galunisertib], in series [1] (mice (♀ CD-1), 75 mg/kg ref 20), the AUClast is recorded as 3110 ng·h/mL, the Cmax is given as 3330 ng/mL, the T1/2 was 84 min and the Tmax is 30 min. For the same molecule, on p38α, the IC50 was 920 nM. In addition, in “Solubility” (setting [6]), the solubility is approximately 150 µg/mL (≈ 406 µM). Further, the solubility in “Solubility” (solution of PBS/2-hydroxypropy-β-cyclodextrin (1 g/mL)) amounted to 700 µg/mL (≈ 1890 µM). In addition, the Solubility in water entry in the series “Solubility” was “poorly soluble”. The “Number of mice with detectable liver metastases (liver mets YES)” value in series [2] is recorded as “All treated animals developed metastases”.
In the case of `Cc1cccc(-c2[nH]c(CNc3ccccc3F)nc2-c2ccc3ncnn3c2)n1` [vactosertib, N -((4-([1,2,4]Triazolo[1,5-a]Pyridin-6-Yl)-5-(6-Methylpyridin-2-Yl)-1 H -Imidazole-2-Yl)Methyl)-2-Fluoroaniline], in series [3], the “Degeneration of heart valves (histopathology grade)” value is recorded as “moderate”; the “Retained hypertrophied cartilage physis in sternum and femur (grade)” value is on record as “mild–moderate”. For the same molecule, the “Animals with chronic inflammation of the myocardium” value in series [3] (at early end points (day 7–8)) is “all 6”. Besides, the Mortality entry in series [3] (group 4, equimolar dose (82 mg/kg BID)) is “all female rats were found dead on day 7 and all male rats had to be sacrificed on day 8”. Moreover, in series [1] (mice (FVB/N), 10 mg/kg ref 21), the AUCinf is on record as 752 ng·h/mL, the AUClast was 724 ng·h/mL, the Cl/F is given as 222 mL/min/kg and the Cmax is 625 ng/mL. Besides, in series [1] (mice (FVB/N), 10 mg/kg ref 21), the T1/2 is 196 min, the Tmax is 30 min and the Vss/F was 18 L/kg. The “Mortality or signs of morbidity” value in series [4] (equimolar dose, mice) is recorded as “No mortality or signs of morbidity”. The “Female mice with slight inflammatory infiltrates in liver” value in series [4] (female, Balb/C, mouse, in vivo, 29 day) is 4/5. Moreover, the Neutrophil count entry in series [4] (mouse, in vivo) is given as “slight increase”. For the same molecule, in series [5], the “Animals showing a curved sternum at death or end point” value was “all”; the “Microscopic findings along the gastrointestinal tract” value was “minimal hyperplasia of the nonglandular stomach and chronic inflammation observed in one female rat”.
For the molecule `Cc1cccc(-c2nn3c(c2-c2ccnc4ccc(O)cc24)CCC3)n1` [HYL001, 4-(2-(6-Methylpyridin-2-yl)-5,6-dihydro-4H-pyrrolo[1,2-b]pyrazol-3-yl)quinolin-6-ol], in series [3], the “Degeneration of heart valves (histopathology grade)” value is reported as “minimal to mild”; the “Retained hypertrophied cartilage physis in sternum and femur (grade)” value is “mild”. Also, in series [3] (low-dose group 1 (25 mg/kg BID)), the Heart abnormalities result is “no heart abnormalities were observed”. In addition, in series [3] (male rats), the no-observed-adverse-effect level is given as 25 mg/kg BID. Further, the “Effects on body weight (gain), feed consumption, hematology, and clinical chemistry analytes” value in series [3] (rats of both sexes, oral, either dose level) is “no HYL001-related effects”. In series [4] (mouse, in vivo), the “Female mice with slight inflammatory infiltrates in liver” value is 2/5 and the “Mortality or signs of morbidity” value is “No mortality or signs of morbidity”. Also, the IC50 at p38α is 548 nM. Moreover, the solubility in “Solubility” (PBS/2-hydroxypropyl-β-cyclodextrin solution, aqueous with cosolvent or surfactant or cyclodextrin, solution of PBS/2-hydroxypropy-β-cyclodextrin (1 g/mL), read-out: Solubility) worked out at 230 µg/mL (≈ 672 µM). In addition, the solubility in the series “Solubility” (setting [6]) was approximately 90 µg/mL (≈ 263 µM). The Solubility in water entry in the series “Solubility” is “poorly soluble”. Also, the “Animals showing a curved sternum at death or end point” value in series [5] was “Some female rats”. For the same molecule, the “Number of mice without detectable liver metastases (liver mets NO)” value in series [2] was 10 out of 11.
